Test results reported in US6436911B1, “IL-12 production inhibitor” (Seikagaku Corporation, priority 1999, dated 2002).

Experiments:
[1] = test system: peritoneal macrophages isolated from C3H/HeN mice; test: IL-12 production in peritoneal macrophages from C3H/HeN mice (LPS + IFN-γ); assay type: cell-based; settings: LPS 200 ng/ml, IFN-γ 2 U/ml, 24 hours, various L3 concentrations (FIG. 14)
Procedure: Ice-cooled phosphate buffered saline (PBS) was injected into abdominal cavities of C3H/HeN mice. After the abdomen of each mouse was massaged, the PBS was collected and centrifuged to obtain macrophages. A cell suspension was prepared by suspending the obtained macrophages in RPMI1640 medium (Sigma) containing 200 ng/ml of LPS, 2 U/ml of recombinant mouse interferon-γ (IFN-γ) and 10% fetal bovine serum at a concentration of 1×10^6 cells/ml. 100 μl of the cell suspension was dispensed on a 96-well flat-bottom plate and further 100 μl of L3 solution of which concentration was adjusted to be twice the final concentration in the RPMI1640 medium was added thereto. Then, the cells were cultured at 37° C. in the presence of 5% CO2 for 24 hours.
(§1) Subsequently, the plate was centrifuged to collect the culture supernatant. The IL-12 concentration in the supernatant was measured as described above.

[2] = test system: IL-12; test: Plasma IL-12 level (IL-12 p70 ELISA) in MRL-lpr/lpr mice after administration; assay type: in vivo; settings: day before autopsy
Text: Plasma IL-12 levels were examined using MRL-lpr/lpr mice treated with and without L4. Macrophages from MRL-lpr/lpr mice are known to markedly produce IL-12 and their serum IL-12 level is high (J. Exp. Med., 183, pp. 1447-1459 (1996)).
(§2) MRL lpr/lpr mice, C57BL/6 mice and ICR mice as normal controls were purchased from Japan Charles River Co., Ltd. and preliminarily maintained for several weeks before divided into groups. Blood was collected from the orbital venous plexus, and they were allocated according to the plasma creatinine level (CRE) as a first marker so that there would be no difference in the average value and the standard deviation for the creatinine level among the groups. They were also grouped so that there would be no difference in the plasma nitrogen level (BUN), white blood cell count (WBC), platelet count (PLT) and weight between groups as far as possible.
The test substances were administered from the next day of the grouping. […]
Blood was collected from the orbital venous plexus at the time of the grouping and on the day before the autopsy. The IL-12 concentration in blood plasma was measured by using an IL-12 p70 ELISA kit (Endogen, Inc.).
(§3) The average value and the standard deviation were calculated for the measured values obtained as above and the statistical significance was analyzed by Williams' multiple comparison test. […]

[3] = test system: MRL-lpr/lpr mice; test: Hematological test: white blood cell count (WBC) in blood of MRL-lpr/lpr mice; assay type: in vivo; settings: day before autopsy
Text: as §2
The test substances were administered from the next day of the grouping. Each of the test substances was dissolved in distilled water at a predetermined concentration to prepare a solution to be administered. The solution was intermittently administered 3 times per week for 4 weeks (total 12 doses). […]
Blood was collected from the orbital venous plexus at the time of the grouping and on the day before the autopsy. The white blood cell count (WBC) was measured by using an automatic cytometer for multiple test items (Sysmex K-2000: Toa Medical Electronics).
as §3

[4] = test system: MRL-lpr/lpr mice; test: Biochemical blood test: plasma creatinine (CRE) and urea nitrogen (BUN) in MRL-lpr/lpr mice; assay type: in vivo; settings: Example 3; L4 3.2 mg/kg i.n.; 6 weeks; day before autopsy (FIG. 4)
Procedure: 9-Week old MRL lpr/lpr mice, C57BL/6 mice and ICR mice were purchased from Japan Charles River Co., Ltd. and preliminarily maintained for 6 weeks before divided into groups. The groups used were as follows.
Each of the test substance was dissolved in distilled water at a predetermined concentration to prepare a solution to be administered. The solution was intermittently administered 3 times per week for 6 weeks (total […]). Observation was performed for 45 days from the start of administration through the autopsy. Other conditions and methods were the same as those of Example 2.
Blood was collected from the orbital venous plexus and plasma creatinine level (CRE) and plasma urea nitrogen level (BUN) were measured by using an automatic analyzer for clinical chemistry (COBAS MIRA S: Nippon Roche) at the time of the grouping and on the day before the autopsy.

[5] = test system: peritoneal macrophages isolated from MRL mice; test: LPS-stimulated IL-12 p70 production in peritoneal macrophages from MRL lpr/lpr mice; assay type: cell-based; settings: for IL-12 p70 production, simultaneous treatment with LPS and test substance: LPS 100 ng/ml, various concentrations, 8-week-old and 39-week-old MRL mice (FIG. 6; L4L4 FIG. 12)
Procedure: Five to seven milliliters of ice-cooled Hank's balanced salt solution was injected in the abdominal cavities of 8- to 39-week-old MRL lpr/lpr mice and extracted 5 minutes later to collect resident peritoneal cells. The collected cells were cultured overnight in RPMI medium contained in a 96-well flat-bottom plate at 37° C. in the presence of 5% CO2. After the cultivation, non-adherent cells were removed and adherent cells were used as peritoneal macrophages for the experiment.
The cells were treated with lipopolysaccharide (LPS, List Biological Laboratories, Inc.) for 24 hours to stimulate IL-12 production. The concentration of IL-12 p70 in the cell culture supernatant was measured by using an IL-12 p70 ELISA kit (Endogen, Inc.) to evaluate the IL-12 production. As for the measured values, the average value and the standard deviation were obtained. Unless otherwise mentioned, the statistical significance was examined by the Williams' multiple comparison test.
The stimulation was performed for 24 hours in the medium containing LPS (100 ng/ml) and various concentrations of L4, and then the IL-12 production was evaluated.
Macrophages were treated with 100 ng/ml of LPS for 0, 2 or 6 hours, and then the medium was replaced with a fresh medium containing 1000 ng/ml of L4 or a fresh medium only (L4(-)) (consequently, IL-12 produced by the pretreatment was removed). 24 hours after the replacement of the medium, the IL-12 production was evaluated.
First, macrophages were treated with L4 at various concentrations for 24 hours and the medium was replaced with a medium containing 100 ng/ml of LPS. 24 hours after the replacement of the medium, the IL-12 production was evaluated.
The IL-12 production in the macrophages of MRL-lpr/lpr mice, pretreated with or without 1000 ng/ml of L4 for 24 hours then treated with 100 ng/ml of LPS for 24 hours (L4 pretreatment), and the treated with 100 ng/ml LPS together with or without 1000 ng/ml of L4 (simultaneous treatment), were compared. In FIG. 11, * and ** indicate that there was statistical significance at levels of p<0.05 and p<0.01, respectively, according to the Student's t-test.

[6] = test system: peritoneal macrophages isolated from C57BL/6 mice; test: LPS-stimulated IL-12 p70 production in peritoneal macrophages from C57BL/6 mice; assay type: cell-based
[7] = test system: synovial cells collected from human rheumatoid arthritis patients; test: IL-12 p70 production in synovial cells from rheumatoid arthritis patients (LPS + IFN-γ); assay type: cell-based; settings: LPS 500 ng/ml, IFN-γ 50 U/ml
Procedure: A cell suspension was prepared by suspending synovial cells collected from human rheumatoid arthritis patients in RPMI1640 medium (Sigma) containing 500 ng/ml of LPS, 50 U/ml of recombinant mouse interferon-γ (IFN-γ) and 10% fetal bovine serum at a concentration of 1×10^6cells/ml.
100 μl of the aforementioned cell suspension was dispensed to a 96-well flat-bottom plate and further 100 μl of L4 solution of which concentration was adjusted to be twice the final concentration in the RPMI1640 medium was added thereto. Then, the cells were cultured at 37° C. in the presence of 5% CO2 for 24 hours.
as §1

SMILES	IL-12 production of macrophages [1]	IL-12 level in plasma ([2]; Example 2, L4 1.6 mg/kg i.n. and 80 mg/kg p.o., 3 times per week for 4 weeks, p<0.05/p<0.01 (FIG. 2))	IL-12 level in plasma ([2]; Example 3, L4 3.2 mg/kg i.n., 3 times per week for 6 weeks, p<0.01 (FIG. 5))	white blood cell count (WBC) in blood ([3]; Example 2, low dose L4 administered groups, 3 times per week for 4 weeks, vs DW group, p<0.05 (FIG. 1))	white blood cell count (WBC) in blood ([3]; Example 3, L4 3.2 mg/kg i.n., 3 times per week for 6 weeks, p<0.05 (FIG. 3))	plasma creatinine level (CRE) [4]	plasma urea nitrogen level (BUN) [4]	IL-12 p70 production, L4 pretreatment compared with simultaneous treatment ([5]; 1000 ng/ml L4, 100 ng/ml LPS, 24 hours (FIG. 11))	IL-12 p70 production, stimulation with LPS after pretreatment with L4, high doses ([5]; L4 100 ng/ml or more, 24 hours, then LPS 100 ng/ml 24 hours (FIG. 9))	IL-12 p70 production, stimulation with LPS after pretreatment with L4 ([5]; L4 various concentrations 24 hours, then LPS 100 ng/ml 24 hours (FIG. 9))	IL-12 p70 production, treatment with L4 after preliminary stimulation with LPS ([5]; LPS 100 ng/ml for 2 and 6 hours, then 1000 ng/ml L4, 24 hours (FIG. 8))	IL-12 p70 production, simultaneous treatment with LPS and test substance ([5]; 24 hours)	IL-12 p70 production, stimulation with LPS after pretreatment with L4 ([6]; C57BL/6 mice, pretreated with L4 for 36 hours (FIG. 10))	IL-12 p70 production, simultaneous treatment with LPS and L4 ([6]; LPS 100 ng/ml, 24 hours, various concentrations of L4, C57BL/6 mice (FIG. 7))	IL-12 production in synovial cells at 1000 ng/ml ([7]; 1000 ng/ml L4, 24 hours (FIG. 13))	IL-12 production in synovial cells ([7]; 24 hours, various L4 concentrations (FIG. 13))
CC(=O)N[C@H]1C(O)O[C@H](CO)[C@@H](O[C@@H]2O[C@H](COS(=O)(=O)O)[C@H](O)[C@H](O)[C@H]2O)[C@@H]1O (stereo partly drawn) [L3, Gal(6S)β1-4GlcNAc]	inhibited IL-12 production of macrophages in a dose-dependent manner	–	–	–	–	–	–	–	–	–	–	–	–	–	–	–
CC(=O)N[C@H]1C(O)O[C@H](COS(=O)(=O)O)[C@@H](O[C@@H]2O[C@H](COS(=O)(=O)O)[C@H](O)[C@H](O)[C@H]2O)[C@@H]1O (stereo partly drawn) [L4, Gal(6S)β1-4GlcNAc(6S)]	–	significant inhibition of the increase in IL-12	significant inhibition of the increase in the IL-12	significant inhibition of the increase in WBC	significant inhibition of the increase in WBC	significant decrease	significant decrease	inhibits IL-12 production more efficiently compared with the simultaneous treatment	almost completely inhibited	L4 pretreatment inhibits the IL-12 production	Inhibition of the IL-12 production by L4 was also observed	dose-dependent inhibitory effect on the IL-12 production	The same results were also obtained	The same result was also obtained	almost halved	tendency that addition of L4 inhibited IL-12 production
CC(=O)NC1C(O)OC(COS(=O)(=O)[O-])C(OC2OC(COS(=O)(=O)[O-])C(O)C(OC3OC(COS(=O)(=O)[O-])C(OC4OC(COS(=O)(=O)[O-])C(O)C(O)C4O)C(O)C3NC(C)=O)C2O)C1O.[Na+].[Na+].[Na+].[Na+] [L4L4, Gal(6S)β1-4GlcNAc(6S)β1-3Gal(6S)β1-4GlcNAc(6S)]	–	–	–	–	–	–	–	–	–	–	–	The same result was obtained	–	–	–	–
